One experiment has as its target T1, CDK2/Cyclin E2 (Homo sapiens, UniProt P24941).
T1 construct: Recombinant protein complex CDK2/Cyclin E2, expressed from insect cell, was purchased from ProQinase
Briefly: CDK2/CyclinE2 Enzymatic Activity Assay (TR-FRET). The format is biochemical. To be noted: ATP 1 mM final, read-out: CDK2_E1 IC50. On the procedure:
CDK2/CyclinE2 Enzymatic Activity Assay
The inhibitory activity of compounds was evaluated in vitro using TR-FRET assay with white 384-well low volume microplate (Greiner Bio-One). CDK2/Cyclin E2 catalyzed phosphorylation of peptide in the presence and absence of compounds was measured and used in IC50 determination. Recombinant protein complex CDK2/Cyclin E2, expressed from insect cell, was purchased from ProQinase. Testing compounds were dissolved in DMSO at 1 mM and tested in 9-dose IC50 mode. The reaction mixture was prepared by mixing CDK2/CyclinE2 (1 nM final), ULight-4E-BP1 (50 nM final, Perkinelmer, TRF0128-D), and ATP (1 mM final) in assay buffer (20 mM of HEPES pH 7.4, 1 mM of EGTA, 0.05% BSA, 0.005% Tween 20, and 1 mM TCEP). The compound of interest in DMSO was added to each well in 3-fold serial dilution by dispenser (TECAN D300E) to make a 9.9 μL of reaction mixture. After 20 minutes preincubation at room temperature, 0.1 μL MgCl2 (10 mM final) was added to initiate the reaction. Following a 45 minute incubation at 37° C., the reaction was stopped by addition of 2 μL of quenching buffer consisting of Lance detection buffer (Perkinelmer CR97-100C), LANCE Ultra Europium-anti-P-4E-BP1 (Perkinelmer, TRF0216-D), EDTA, and incubated at room temperature for additional 60 minutes in the dark. The reaction signal was measured by Envision multimode plate reader (PerkinElmer, 2102-0010). IC50 values were determined by fitting the data to the standard 4 parameters with Hill Slope using GraphPad Prism software.

In the next experiment the test system is OVCAR3 p-RB. Briefly: pRB ICW Assay in OVCAR3 Cells. The format is cell-based. To be noted: Homo sapiens, OVCAR-3, incubated with compound for 2 hours. Here is the method: pRB ICW Assay in OVCAR3 Cells
OVCAR3 cells were maintained in RPMI (Corning, Catalog #: 10-040-CV) supplemented with 10% v/v FBS (Gibco, Catalog #: 26140-079), 1% v/v Penicillin Streptomycin (Gibco, Catalog #15140-122.) OVCAR3 cells grown at log phase were trypsinized, counted, and resuspended in fresh medium to reach a final density of 6.7e4 cells/mL and 75 μL of culture were dispensed into a 384-well plate (Falcon, cat #353962) using a Multidrop Combi dispenser (Thermo Scientific). The next day, compounds were dispensed as a 9-point, ½ log serial dilution using a Tecan digital dispenser (D300e), and cells were incubated with compound for 2 hours in a humidified incubator at 37° C. A reference compound at a final concentration of 10 μM was used as a control for maximum inhibition. Each compound was tested in duplicate for each experiment. At the end of the incubation, […] (Electron Microscopy, cat #15710) was slowly added to each well and the plate was incubated at room temperature (RT) for 30 minutes to fix cells. Cells were then permeabilized by incubating with 50 μL/well of wash buffer (1×PBS with 0.1% Triton X-100) 5×5 minutes, followed by 1 hour blocking with 30 μL/well of Odyssey blocking buffer (Li-COR, cat #927-40000), at RT. Anti-phosphor RB antibody (Cell signaling 8516S) was diluted 1:1000 in Odyssey blocking buffer and 20 μL was added to all wells and incubated overnight in 4° C. with gently rocking. The next day, cells were washed 5×5 min with 50 μL/well of wash buffer, followed with 1 hour incubation with secondary antibody and DRAQ5 diluted in Odyssey blocking buffer (1:500 dilution for secondary antibody and 1:2000 dilution for DRAQ5), 5×5 min washes, and one last wash with water. Plates were dried in 37° C. oven for 5 minutes and scanned using Li-COR Odyssey CLx imaging system to acquire intensities at 700 and 800 nm channels.

The record followed here is patent US20240150340A1, “CDK Inhibitors And Their Use As Pharmaceuticals” (Prelude Therapeutics Incorporated, priority 2022, published 2024).

As usually defined, the IC50 is the concentration at which inhibition is half-maximal.

Regarding `Cn1cnc(S(=O)(=O)N2CC[C@@H](Nc3ncc(C(F)(F)F)c(-c4cc(C#N)c(CC(C)(C)O)s4)n3)[C@H](F)C2)c1` [Example 127, 5-(2-(((3R,4R)-3-fluoro-1-((1-methyl-1H-imidazol-4-yl)sulfonyl)piperidin-4-yl)amino)-5-(trifluoromethyl)pyrimidin-4-yl)-2-(2-hydroxy-2-methylpropyl)thiophene-3-carbonitrile], the IC50 on CDK2/Cyclin E2 and in the experiment with OVCAR3 p-RB was not above 100 nM each time.
In the case of `C[C@@H]1CN(S(C)(=O)=O)CC[C@@H]1Nc1ncc(C(F)(F)F)c(-c2ncc(C(O)CF)s2)n1` (stereo partly drawn) [Example 145, 2-fluoro-1-(2-(2-(((3R,4S)-3-methyl-1-(methylsulfonyl)piperidin-4-yl)amino)-5-(trifluoromethyl)pyrimidin-4-yl)thiazol-5-yl)ethan-1-ol], the IC50 on CDK2/Cyclin E2 is not above 100 nM; in the experiment on OVCAR3 p-RB, more than 500 nM.
With `C[C@@H]1CN(S(=O)(=O)c2cnn(C)c2)CC[C@@H]1Nc1ncc(C(F)(F)F)c(-c2cc(C#N)c(C(C)(C)O)s2)n1` [Example 118, 2-(2-hydroxypropan-2-yl)-5-(2-(((3R,4S)-3-methyl-1-((1-methyl-1H-pyrazol-4-yl)sulfonyl)piperidin-4-yl)amino)-5-(trifluoromethyl)pyrimidin-4-yl)thiophene-3-carbonitrile], the half-inhibitory concentration (IC50) at CDK2/Cyclin E2 was not above 100 nM; with OVCAR3 p-RB, 100 to 500 nM.
Take `CC(C)(O)Cc1sc(-c2nc(NC3CCN(S(C)(=O)=O)CC3)ncc2C(F)(F)F)cc1C#N` [Example 124, 2-(2-hydroxy-2-methylpropyl)-5-(2-((1-(methylsulfonyl)piperidin-4-yl)amino)-5-(trifluoromethyl)pyrimidin-4-yl)thiophene-3-carbonitrile]: the concentration for half-maximal inhibition (IC50) on CDK2/Cyclin E2 and with OVCAR3 p-RB was not above 100 nM in each case.
On to `CC(C)(O)Cc1cnc(-c2nc(N[C@H]3CCN(S(C)(=O)=O)C[C@H]3F)ncc2C(F)F)s1` [Example 154, 1-(2-(5-(difluoromethyl)-2-(((3R,4S)-3-fluoro-1-(methylsulfonyl)piperidin-4-yl)amino)pyrimidin-4-yl)thiazol-5-yl)-2-methylpropan-2-ol], for which the half-inhibitory concentration (IC50) at CDK2/Cyclin E2 is not above 100 nM; in the experiment with OVCAR3 p-RB, more than 500 nM.
Take `Cn1cc(S(=O)(=O)N2CC[C@H](Nc3ncc(C(F)(F)F)c(-c4cc(C(N)=O)ns4)n3)[C@H](F)C2)cn1` [Example 129, 5-(2-(((3R,4S)-3-fluoro-1-((1-methyl-1H-pyrazol-4-yl)sulfonyl)piperidin-4-yl)amino)-5-(trifluoromethyl)pyrimidin-4-yl)isothiazole-3-carboxamide]: the concentration for half-maximal inhibition (IC50) at CDK2/Cyclin E2 and with OVCAR3 p-RB was not above 100 nM in each case.
With `CC(O)c1cnc(-c2nc(NC3CCN(S(C)(=O)=O)CC3)ncc2C(F)(F)F)s1` (stereo not shown) [Example 112, 1-(2-(2-((1-(methylsulfonyl)piperidin-4-yl)amino)-5-(trifluoromethyl)pyrimidin-4-yl)thiazol-5-yl)ethan-1-ol], the IC50 at CDK2/Cyclin E2 and in the experiment on OVCAR3 p-RB was not above 100 nM each time.
As to `CC(C)(O)Cc1sc(-c2nc(NC3CCN(S(C)(=O)=O)CC3)ncc2C(F)(F)F)cc1C(N)=O` [Example 130, 2-(2-hydroxy-2-methylpropyl)-5-(2-((1-(methylsulfonyl)piperidin-4-yl)amino)-5-(trifluoromethyl)pyrimidin-4-yl)thiophene-3-carboxamide], the IC50 on CDK2/Cyclin E2 is not above 100 nM; in the experiment on OVCAR3 p-RB it was 100 to 500 nM.
Consider `CS(=O)(=O)N1CCC(Nc2ncc(C(F)(F)F)c(-c3ncc(C(O)C(F)F)s3)n2)CC1` (stereo not shown) [Example 134, 2,2-difluoro-1-(2-(2-((1-(methylsulfonyl)piperidin-4-yl)amino)-5-(trifluoromethyl)pyrimidin-4-yl)thiazol-5-yl)ethan-1-ol], for which the half-maximal inhibitory concentration (IC50) at CDK2/Cyclin E2 and in the experiment on OVCAR3 p-RB was not above 100 nM throughout.
On to `C[C@@H]1CN(S(C)(=O)=O)CC[C@@H]1Nc1ncc(C(F)(F)F)c(-c2ncc(C(O)C(F)(F)F)s2)n1` (stereo partly drawn) [Example 140, 2,2,2-trifluoro-1-(2-(2-(((3R,4S)-3-methyl-1-(methylsulfonyl)piperidin-4-yl)amino)-5-(trifluoromethyl)pyrimidin-4-yl)thiazol-5-yl)ethan-1-ol], for which the half-maximal inhibitory concentration (IC50) is not above 100 nM on CDK2/Cyclin E2 and more than 500 nM in the experiment with OVCAR3 p-RB.
With `Cn1cc(S(=O)(=O)N2CCC(Nc3ncc(C(F)(F)F)c(-c4cc(C#N)c(C(C)(C)O)s4)n3)CC2)cn1` [Example 117, 2-(2-hydroxypropan-2-yl)-5-(2-((1-((1-methyl-1H-pyrazol-4-yl)sulfonyl)piperidin-4-yl)amino)-5-(trifluoromethyl)pyrimidin-4-yl)thiophene-3-carbonitrile], the IC50 on CDK2/Cyclin E2 and with OVCAR3 p-RB was not above 100 nM in each case.
As to `Cn1cc(S(=O)(=O)N2CCC(Nc3ncc(C(F)(F)F)c(-c4ncc(C(C)(C)O)s4)n3)CC2)cn1` [Example 99, 2-(2-(2-((1-((1-methyl-1H-pyrazol-4-yl)sulfonyl)piperidin-4-yl)amino)-5-(trifluoromethyl)pyrimidin-4-yl)thiazol-5-yl)propan-2-ol], the half-maximal inhibitory concentration (IC50) was not above 100 nM at CDK2/Cyclin E2 and 100 to 500 nM in the experiment on OVCAR3 p-RB.
Regarding `C[C@@H]1CN(S(=O)(=O)c2cn(C)cn2)CC[C@@H]1Nc1ncc(C(F)(F)F)c(-c2ncc(C(C)(C)O)s2)n1` [Example 133, 2-(2-(2-(((3R,4S)-3-methyl-1-((1-methyl-1H-imidazol-4-yl)sulfonyl)piperidin-4-yl)amino)-5-(trifluoromethyl)pyrimidin-4-yl)thiazol-5-yl)propan-2-ol], the half-maximal inhibitory concentration (IC50) at CDK2/Cyclin E2 and with OVCAR3 p-RB was not above 100 nM in each case.
Regarding `CC(C)(O)Cc1cnc(-c2nc(N[C@H]3CCN(S(C)(=O)=O)C[C@H]3F)ncc2Cl)s1` [Example 152, 1-(2-(5-chloro-2-(((3R,4S)-3-fluoro-1-(methylsulfonyl)piperidin-4-yl)amino)pyrimidin-4-yl)thiazol-5-yl)-2-methylpropan-2-ol], the IC50 at CDK2/Cyclin E2 is not above 100 nM; with OVCAR3 p-RB, 100 to 500 nM.
Taken in the same sequence, the figures for `Cn1cc(S(=O)(=O)N2CC[C@@H](Nc3ncc(C(F)(F)F)c(-c4cc(C(N)=O)ns4)n3)[C@H](F)C2)cn1` [Example 128, 5-(2-(((3R,4R)-3-fluoro-1-((1-methyl-1H-pyrazol-4-yl)sulfonyl)piperidin-4-yl)amino)-5-(trifluoromethyl)pyrimidin-4-yl)isothiazole-3-carboxamide] were not above 100 nM and not above 100 nM.
Consider `C[C@@H]1CN(S(=O)(=O)N(C)C)CC[C@@H]1Nc1ncc(C(F)(F)F)c(-c2ncc(CC(C)(C)O)s2)n1` [Example 149, (3R,4S)-4-((4-(5-(2-hydroxy-2-methylpropyl)thiazol-2-yl)-5-(trifluoromethyl)pyrimidin-2-yl)amino)-N,N,3-trimethylpiperidine-1-sulfonamide], for which the IC50 on CDK2/Cyclin E2 was not above 100 nM; in the experiment on OVCAR3 p-RB, more than 500 nM.
`Cn1cc(S(=O)(=O)N2CC[C@@H](Nc3ncc(C(F)(F)F)c(-c4ncc(CC(C)(C)O)s4)n3)[C@H](F)C2)cn1` [Example 110, 1-(2-(2-(((3R,4R)-3-fluoro-1-((1-methyl-1H-pyrazol-4-yl)sulfonyl)piperidin-4-yl)amino)-5-(trifluoromethyl)pyrimidin-4-yl)thiazol-5-yl)-2-methylpropan-2-ol]: the IC50 at CDK2/Cyclin E2 is not above 100 nM; in the experiment on OVCAR3 p-RB it was 100 to 500 nM.
